Laboratory results from patent publication US20250041298A1, “CDK4 INHIBITOR FOR THE TREATMENT OF CANCER” (Pfizer Inc., priority 2021, published 2025).
Values joined by “and” are separate entries in the source; they are usually repeats but may differ in a detail not shown here. Identical values can stand only once.

Tests used:
Assay type in all cases: cell-based, human
[1] = system: HR+, HER2+ BT474 breast cancer spheroids; assay: Multicellular tumor spheroid growth inhibition (SGI), BT474
Method: (§1) The purpose of this example was to evaluate the combination effect of PF-07220060 and endocrine therapy in multicellular tumor spheroid growth inhibition (SGI). To model the characteristics and cellular behavior of human tumors, the activity of PF-07220060 was evaluated in three dimensional MCTS models of HR+ breast cancer and AR+ prostate cancer following PF-07220060 treatment as a single agent and in combination with fulvestrant • 1) in HR+, HER2-T47D breast cancer spheroids. • 2) in HR+, HER2+BT474 breast cancer spheroids, • 3) in BT474 spheroids, and • 4) in AR+ prostate carcinoma cell line (LNCaP) prostate cancer spheroids. Spheroids were treated with increasing concentrations of 100, 300, or 1000 nM PF-07220060 and compared to palbociclib at the clinically relevant concentration of 30 nM. Single agent PF-07220060 inhibited spheroid growth in a dose-dependent manner, with highest efficacy (86% SGI over the duration of treatment with 1000 nM) shown in the T47D BC spheroid model (Table 1). Combining 100 nM PF-07220060 with 1 nM fulvestrant in T47D cells increased SGI to 96% compared to either single agent alone (57 to 67% SGI with 100 nM PF-07220060 or 79% SGI with fulvestrant) (Table 1). BT474 spheroids were relatively less sensitive to PF-07220060 resulting in 52% SGI at 1000 nM.

[2] = system: HR+, HER2- T47D breast cancer spheroids; assay: Multicellular tumor spheroid growth inhibition (SGI), T47D
Method: as §1

[3] = system: AR+ prostate carcinoma cell line (LNCaP) prostate cancer spheroids; assay: Multicellular tumor spheroid growth inhibition (SGI), LNCaP
Method: The purpose of this example was to evaluate the combination effect of PF-07220060 and endocrine therapy in multicellular tumor spheroid growth inhibition (SGI). To model the characteristics and cellular behavior of human tumors, the activity of PF-07220060 was evaluated in three dimensional MCTS models of HR+ breast cancer and AR+ prostate cancer following PF-07220060 treatment as a single agent and in combination with fulvestrant • 1) in HR+, HER2-T47D breast cancer spheroids. • 2) in HR+, HER2+BT474 breast cancer spheroids, • 3) in BT474 spheroids, and • 4) in AR+ prostate carcinoma cell line (LNCaP) prostate cancer spheroids. Spheroids were treated with increasing concentrations of 100, 300, or 1000 nM PF-07220060 and compared to palbociclib at the clinically relevant concentration of 30 nM.

SMILES | SGI ([1]; 100 nM single agent) | SGI ([2]; 1 nM single agent) | SGI ([1]; 30 nM single agent) | SGI ([2]; 30 nM single agent) | SGI ([3]; 30 nM single agent) | SGI ([3]; 100 nM single agent)
C[C@]12CC[C@@H]3c4ccc(O)cc4C[C@@H](CCCCCCCCC[S+]([O-])CCCC(F)(F)C(F)(F)F)[C@H]3[C@@H]1CC[C@@H]2O (stereo partly drawn) [Fulvestrant, reference compound] | 10% | 79% | – | – | – | –
CC(=O)c1c(C)c2cnc(Nc3ccc(N4CCNCC4)cn3)nc2n(C2CCCC2)c1=O [Palbociclib, reference compound] | – | – | 0% and 5% and 1% | 38% and 49% | 5% | 24%
